Where only a bound is given, the exact number is not on record here.

The compound `C1=c2cc3c(cc2Sc2ccccc21)=Cc1ccccc1S3` yielded a melting point of 276 to 280 °C.

`CCOC(=O)c1cc(-c2csc(-c3ccnc(N)c3)n2)c(=O)[nH]c1C` registered a melting point above 260 °C.

Consider `COc1cc(OC)c(C2=NC(NC(=O)Nc3cccc(C)c3)C(=O)N(C)c3ccccc32)c(OC)c1` (stereo not given), for which the melting point was determined as 240 °C.

Consider `Cc1cnc2c(c1)CCCC2NC(N)=S` (stereo not given), for which the melting point amounted to 114 °C.

As to `CC(C)(C)c1ccc2c(c1)C(=O)CCC2`, the melting point was 101 to 102 °C.

`NC(=O)CCCCCc1cccnc1` came in with a melting point of 64 to 65 °C.

For the compound `CCOC(=O)C(=CNc1cccnc1OC)C(=O)OCC`, the melting point was 65 °C.

For the compound `Cc1cc(O)c(O)cc1S(=O)(=O)c1ccc(Cl)c([N+](=O)[O-])c1`, the melting point fell in the range of 196 to 197 °C.

For `CCCCCCCCCCCCCCCCCCOC(=O)P(=O)(OC)OC`, the melting point lay in the range of 41 to 42 °C.

In the case of `CN1CCOc2ccc(/C=C/C(=O)O)cc21`, the melting point is 190 °C.

Regarding `C#Cc1cc(C)c(Oc2ccc([N+](=O)[O-])c(Nc3ccc(C#N)cc3)n2)c(C)c1`, the melting point was 186 to 188 °C.

Compound `Cc1nc(-c2nc(C)c(-c3ccnc(Nc4ccc(N5CCOCC5)cc4)n3)s2)cs1` gave a melting point of 262 to 263 °C.

In turn, `CCOC(=O)C(C)=Cc1ccc(Sc2ccncc2)c(C(F)(F)F)c1` showed a melting point above 200 °C.

`Cc1cccc(NC(=O)c2nc(-c3ccccc3)c3ccccc3c2O)n1` registered a melting point of 261 to 263 °C.

For the compound `O=C(Nc1ccc(NC(=O)OCCCl)c([N+](=O)[O-])n1)OCCCl`, the melting point lay in the range of 118 to 119 °C.

For the compound `CC(C)(Nc1c(Cl)cccc1[N+](=O)[O-])C(=O)O`, the melting point was 107 to 109 °C.

The compound `CNS(=O)(=O)Cc1ccc(C)cc1` returned a melting point of 49 to 52 °C.

Turning to `COc1c(O)ccc2cc(-c3ccc(O)cc3)ccc12`, the melting point is 204 to 206 °C.

In turn, `CCCc1cc(CCC)c2oc(C(=O)c3ccc(OC)cc3)c(C)c2c1O` showed a melting point of 119 to 121 °C.

In turn, `O=C(NCCCCN1CCC(c2ccc3ccccc3c2)CC1)c1ccc(NC(=O)c2ccc(Cl)cc2)cc1` showed a melting point of 270 °C.

In the case of `CCc1c(C#N)c(-c2ccc(C#N)cc2)c(C)n1Cc1cnc(Cl)c(CO)c1`, the melting point fell in the range of 126 to 127 °C.

In turn, `CCn1nnc(Nc2ccc3nc(NCc4ccccc4OC)ccc3c2)n1` came in with a melting point of 190 °C.

`CC(C)(C)OC(=O)N1CCC(OCc2ccccc2)C1CC(=O)Cn1cnc2cccnc2c1=O` (stereo not given) came in with a melting point of 229 °C.

The compound `CC(C)(C)OC(=O)Nc1ccc2ccc(S(C)(=O)=O)cc2c1` displayed a melting point of 179 to 180 °C.

Compound `CCOC(=O)c1c(Nc2c(C)cc(Br)cc2C)n[nH]c1C` showed a melting point of 168 to 196 °C.

`O=C(O)c1cc(Cl)cc2c1NCCO2`: the melting point lay within 209 to 210 °C.

On to `NC(=O)c1cc([N+](=O)[O-])c(N2CC2)c([N+](=O)[O-])c1`, for which the melting point was in the range of 228 to 231 °C.

Compound `CCCCOc1cc(CCC(=O)O)ccc1OCCCc1cn(-c2ccc(C(F)(F)F)cn2)nc1OCC` gave a melting point of 92 to 93 °C.

Consider `Cc1nc(-c2ccccc2)nc2sc3c(N4CCNCC4)nc(Cl)nc3c12`, for which the melting point is above 310 °C.

The compound `CC(=O)N1CCC(CCC(=O)c2ccc3c(c2)CCN3c2ccncc2)CC1` displayed a melting point of 157 to 158 °C.

Regarding `NC(=S)c1ccc(Br)cc1`, the melting point was in the range of 142 to 144 °C.

The compound `O=c1[nH]c2cc(Cl)ccc2c(O)c1-c1ccccc1F` yielded a melting point above 350 °C.

Compound `CCOC(=O)c1cn(C(C)C(OC)OC)c2c(F)c(F)c(F)cc2c1=O` (stereo not given) gave a melting point of 125 to 126 °C.

In turn, `CNC(=O)c1cccc(-c2ccc(OC(C)C(O)CCc3cccnc3)cc2)c1` (stereo not given) showed a melting point of 54 to 55 °C.

As for `CCCNC(=O)c1ccc(-c2ccc3nnn(C(C)(C)c4ccc5ncccc5c4)c3n2)cc1F`, the melting point lay in the range of 162 to 164 °C.

The values are drawn from a melting point compilation (Tetko et al.; mined from patent text by program, amines drawn as free bases though some values may be those of a salt).
